According to patent US12077503B2, “Substituted cyclic amides and their use as herbicides” (FMC CORPORATION, priority 2015, dated 2024):

What was measured:
Type in all cases: in vivo
rice (Oryra sativa) = experiment: Test B flooded paddy test; settings: Oryza sativa, Flood, 250 g ai/ha; scale of 0 to 100 where 0 is no effect and 100 is complete control; read-out: Rice plant response rating
Method in brief: (§1)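 Plants at 2-leaf stage flooded to 3 cm above soil, with compounds applied directly to paddy water and that depth maintained. Plants kept in greenhouse 13–15 d. Visual rating versus controls on a 0 (no effect) to 100 (complete control) scale.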

[1] = test system: sedge, umbrella (small-flower umbrella sedge, Cyperus difformis); experiment: Test B flooded paddy test; settings: Cyperus difformis, Flood, 250 g ai/ha; scale of 0 to 100 where 0 is no effect and 100 is complete control; read-out: Sedge, Umbrella plant response rating
Method in brief: as §1

[2] = test system: ducksalad (Heteranthera limosa); experiment: Test B flooded paddy test; settings: Heteranthera limosa, Flood, 250 g ai/ha; scale of 0 to 100 where 0 is no effect and 100 is complete control; read-out: Ducksalad plant response rating
Method in brief: as §1

[3] = test system: barnyardgrass (Echinochloa crus-galli); experiment: Test B flooded paddy test; settings: Echinochloa crus-galli, Flood, 250 g ai/ha; scale of 0 to 100 where 0 is no effect and 100 is complete control; read-out: Barnyardgrass plant response rating
Method in brief: as §1

[4] = test system: ragweed (common ragweed, Ambrosia elatior); experiment: Test A preemergence; settings: Ambrosia artemisiifolia, pre-emergence, 240 h; for pest or weed control at 125 g/ha: 125 g ai/ha, Preemergence, visual injury rating after approximately 10 d, read-out: Ragweed plant response rating (0 to 100 scale, 0 is no effect, 100 is complete control); for pest or weed control at 500 g/ha: 500 g ai/ha, preemergence, visual injury rating about 10 d after treatment, 0 to 100 scale (0 no effect, 100 complete control), read-out: Ragweed plant response rating
Method in brief: (§2)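 Greenhouse, ~10 d after spray; visual injury vs untreated controls, 0 = no effect, 100 = complete control. Preemergence: directed soil spray over planted seeds. Postemergence: plants 2–10 cm, 1–2 leaf stage. Loam/sand blend. Compound in non-phytotoxic solvent with surfactant.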

[5] = test system: pigweed (Amaranthus retroflexus); experiment: Test A preemergence; settings: Amaranthus retroflexus, pre-emergence, 240 h; for pest or weed control at 125 g/ha: 125 g ai/ha, Preemergence, visual injury rating after approximately 10 d, read-out: Pigweed plant response rating (0 to 100 scale, 0 is no effect, 100 is complete control); for pest or weed control at 500 g/ha: 500 g ai/ha, preemergence, visual injury rating about 10 d after treatment, 0 to 100 scale (0 no effect, 100 complete control), read-out: Pigweed plant response rating
[6] = test system: giant foxtail (Setaria faberii); experiment: Test A preemergence; settings: Setaria faberi, pre-emergence, 240 h; for pest or weed control at 125 g/ha: 125 g ai/ha, Preemergence, visual injury rating after approximately 10 d, read-out: Foxtail, Giant plant response rating (0 to 100 scale, 0 is no effect, 100 is complete control); for pest or weed control at 500 g/ha: 500 g ai/ha, preemergence, visual injury rating about 10 d after treatment, 0 to 100 scale (0 no effect, 100 complete control), read-out: Foxtail, Giant plant response rating
Method in brief: as §2

[7] = test system: ryegrass, Italian (Italian ryegrass, Lolium multiflorum); experiment: Test A preemergence; settings: Lolium multiflorum, pre-emergence, 240 h; for pest or weed control at 125 g/ha: 125 g ai/ha, Preemergence, visual injury rating after approximately 10 d, read-out: Ryegrass, Italian plant response rating (0 to 100 scale, 0 is no effect, 100 is complete control); for pest or weed control at 500 g/ha: 500 g ai/ha, preemergence, visual injury rating about 10 d after treatment, 0 to 100 scale (0 no effect, 100 complete control), read-out: Ryegrass, Italian plant response rating
Method in brief: as §2

Kochia (Kochia scoparia) [8] = experiment: Test A preemergence; settings: Bassia scoparia, pre-emergence, 240 h; for pest or weed control at 125 g/ha: 125 g ai/ha, Preemergence, visual injury rating after approximately 10 d, read-out: Kochia plant response rating (0 to 100 scale, 0 is no effect, 100 is complete control); for pest or weed control at 500 g/ha: 500 g ai/ha, preemergence, visual injury rating about 10 d after treatment, 0 to 100 scale (0 no effect, 100 complete control), read-out: Kochia plant response rating
Method in brief: as §2

[9] = test system: barnyardgrass (Echinochloa crus-galli); experiment: Test A preemergence; settings: Echinochloa crus-galli, pre-emergence, 240 h; for pest or weed control at 125 g/ha: 125 g ai/ha, Preemergence, visual injury rating after approximately 10 d, read-out: Barnyardgrass plant response rating (0 to 100 scale, 0 is no effect, 100 is complete control); for pest or weed control at 500 g/ha: 500 g ai/ha, preemergence, visual injury rating about 10 d after treatment, 0 to 100 scale (0 no effect, 100 complete control), read-out: Barnyardgrass plant response rating
Method in brief: as §2

[10] = test system: ragweed (common ragweed, Ambrosia elatior); experiment: Test A postemergence; settings: Ambrosia artemisiifolia, post-emergence, 240 h, 125 g ai/ha, Postemergence; visual injury after approximately 10 d; 0 to 100 scale where 0 is no effect and 100 is complete control; read-out: Plant response rating, Ragweed
Method in brief: as §2

corn (Zea mays) = experiment: Test A postemergence; settings: Zea mays, post-emergence, 240 h, 125 g ai/ha, Postemergence; visual injury after approximately 10 d; 0 to 100 scale where 0 is no effect and 100 is complete control
Method in brief: as §2

[11] = test system: pigweed (Amaranthus retroflexus); experiment: Test A postemergence; settings: Amaranthus retroflexus, post-emergence, 240 h, 125 g ai/ha, Postemergence; visual injury after approximately 10 d; 0 to 100 scale where 0 is no effect and 100 is complete control; read-out: Plant response rating, Pigweed
Method in brief: as §2

[12] = test system: wheat (Triticum aestivum); experiment: Test A postemergence; settings: Triticum aestivum, post-emergence, 240 h, 125 g ai/ha, Postemergence; visual injury after approximately 10 d; 0 to 100 scale where 0 is no effect and 100 is complete control; read-out: Plant response rating, Wheat
Method in brief: as §2

[13] = test system: giant foxtail (Setaria faberii); experiment: Test A postemergence; settings: Setaria faberi, post-emergence, 240 h, 125 g ai/ha, Postemergence; visual injury after approximately 10 d; 0 to 100 scale where 0 is no effect and 100 is complete control; read-out: Plant response rating, Foxtail, Giant
Method in brief: as §2

[14] = test system: Galium (catchweed bedstraw, Galium aparine); experiment: Test A postemergence; settings: Galium, post-emergence, 240 h, 125 g ai/ha, Postemergence; visual injury after approximately 10 d; 0 to 100 scale where 0 is no effect and 100 is complete control; read-out: Plant response rating, Galium
Method in brief: as §2

[15] = test system: ryegrass, Italian (Italian ryegrass, Lolium multiflorum); experiment: Test A postemergence; settings: Lolium multiflorum, post-emergence, 240 h, 125 g ai/ha, Postemergence; visual injury after approximately 10 d; 0 to 100 scale where 0 is no effect and 100 is complete control; read-out: Plant response rating, Ryegrass, Italian
Method in brief: as §2

Kochia (Kochia scoparia) [16] = experiment: Test A postemergence; settings: Bassia scoparia, post-emergence, 240 h, 125 g ai/ha, Postemergence; visual injury after approximately 10 d; 0 to 100 scale where 0 is no effect and 100 is complete control; read-out: Plant response rating, Kochia
Method in brief: as §2

[17] = test system: blackgrass (Alopecurus myosuroides); experiment: Test A postemergence; settings: Alopecurus myosuroides, post-emergence, 240 h, 125 g ai/ha, Postemergence; visual injury after approximately 10 d; 0 to 100 scale where 0 is no effect and 100 is complete control; read-out: Plant response rating, Blackgrass
Method in brief: as §2

[18] = test system: barnyardgrass (Echinochloa crus-galli); experiment: Test A postemergence; settings: Echinochloa crus-galli, post-emergence, 240 h, 125 g ai/ha, Postemergence; visual injury after approximately 10 d; 0 to 100 scale where 0 is no effect and 100 is complete control; read-out: Plant response rating, Barnyardgrass
Method in brief: as §2

SMILES | pest or weed control at 250 g/ha (rice (Oryra sativa)) [%] | pest or weed control at 250 g/ha [1] [%] | pest or weed control at 250 g/ha [2] [%] | pest or weed control at 250 g/ha [3] [%] | pest or weed control at 125 g/ha [4] [%] | pest or weed control at 500 g/ha [4] [%] | pest or weed control at 125 g/ha [5] [%] | pest or weed control at 500 g/ha [5] [%] | pest or weed control at 125 g/ha [6] [%] | pest or weed control at 500 g/ha [6] [%] | pest or weed control at 125 g/ha [7] [%] | pest or weed control at 500 g/ha [7] [%] | pest or weed control at 125 g/ha (Kochia (Kochia scoparia) [8]) [%] | pest or weed control at 500 g/ha (Kochia (Kochia scoparia) [8]) [%] | pest or weed control at 125 g/ha [9] [%] | pest or weed control at 500 g/ha [9] [%] | pest or weed control at 125 g/ha [10] [%] | Corn plant response rating (crop injury, 0 = no effect, 100 = complete kill) at 125 g/ha (corn (Zea mays)) [%] | pest or weed control at 125 g/ha [11] [%] | plant injury at 125 g/ha [12] [%] | also measured
CN1C[C@H](c2csc(C(F)(F)F)c2)[C@@H](C(=O)Nc2ccccc2F)C1=O [Compound 958] | 15 | 0 | 100 | 55 | 20 | 60 | 0 | 30 | 90 | 90 | 0 | 20 | 0 | 90 | 90 | 90 | 0 | 0 | 0 | 0 | pest or weed control at 125 g/ha [13]: 90%; pest or weed control at 125 g/ha [14]: 30%; pest or weed control at 125 g/ha [15]: 0%; pest or weed control at 125 g/ha (Kochia (Kochia scoparia) [16]): 0%; pest or weed control at 125 g/ha [17]: 30%; pest or weed control at 125 g/ha [18]: 70%
O=C1NC[C@H](c2cc(C(F)(F)F)cs2)[C@H]1C(=O)Nc1cccc(F)c1F [Compound 961] | 20 | 0 | 100 | 40 | 60 | 90 | 0 | 30 | 70 | 90 | 30 | 80 | 70 | 90 | 90 | 90 | 20 | 20 | 0 | 0 | pest or weed control at 125 g/ha [13]: 30%; pest or weed control at 125 g/ha [14]: 30%; pest or weed control at 125 g/ha [15]: 20%; pest or weed control at 125 g/ha (Kochia (Kochia scoparia) [16]): 50%; pest or weed control at 125 g/ha [17]: 30%; pest or weed control at 125 g/ha [18]: 90%
CCOc1cccc([C@H]2CN(C)C(=O)[C@@H]2C(=O)Nc2ccc(F)cc2F)c1 [Compound 963] | 0 | 0 | 90 | 65 | 0 | 0 | 0 | 30 | 100 | 100 | 20 | 40 | 40 | 70 | 90 | 100 | 0 | 0 | 0 | 0 | pest or weed control at 125 g/ha [13]: 90%; pest or weed control at 125 g/ha [14]: 30%; pest or weed control at 125 g/ha [15]: 20%; pest or weed control at 125 g/ha (Kochia (Kochia scoparia) [16]): 20%; pest or weed control at 125 g/ha [17]: 0%; pest or weed control at 125 g/ha [18]: 90%
CC(C)COc1cccc([C@H]2CNC(=O)[C@@H]2C(=O)Nc2ccccc2F)c1 [Compound 964] | 15 | 0 | 75 | 0 | 0 | 0 | 0 | 0 | 90 | 90 | 0 | 30 | 0 | 20 | 90 | 90 | 0 | 0 | 0 | 0 | pest or weed control at 125 g/ha [13]: 60%; pest or weed control at 125 g/ha [14]: 40%; pest or weed control at 125 g/ha [15]: 0%; pest or weed control at 125 g/ha (Kochia (Kochia scoparia) [16]): 0%; pest or weed control at 125 g/ha [17]: 0%; pest or weed control at 125 g/ha [18]: 60%
